Values of other authors in patent US20040063167A1, “Minimising calibration problems of in vivo glucose sensors” (priority 2002, published 2004).

System: animal, plant and bacterial cells in culture

OO [H2O2, Hydrogen peroxide]
levels of H2O2 that seem to have limited cytotoxicity (many cell types, "at or below about"): 20 to 50 µM | levels of H2O2 described as being cytotoxic (wide range of animal, plant and bacterial cells in culture, "usually"): ≥ 50 µM
